The values that follow come from the supplement of paper PMC10307832.

What all share (test): relative viability (nuclei count vs DMSO), 5 days (fraction); higher = more cells survive
Compound in the assay “GSK126 + Linsitinib”: CC[C@H](C)N1C=C(C2=C(C=C(C=C21)C3=CN=C(C=C3)N4CCNCC4)C(=O)NCC5=C(C=C(NC5=O)C)C)C [GSK126] + C[C@]1(O)C[C@@H](c2nc(-c3ccc4ccc(-c5ccccc5)nc4c3)c3c(N)nccn32)C1 [Linsitinib] (partner 1 µM)
Put shortly:
(§1)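 A single step with final 0.05% Triton X-100, 1% formaldehyde and 1 ug/ml Hoechst fixed the cells and stained nuclei 5 days after treatment. Lung cancer cell lines in 1536-well plates had been treated by pin tool the day after seeding with one drug alone or a fixed anchor-drug dose plus five library-drug doses (not always all listed) in √10 steps, and nuclei were counted on 4× images. Relative viability is the ratio of nuclei in treated wells to nuclei in vehicle wells, taken as the median of duplicate plates.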

Compound in the assay “GSK126 + Tozasertib”: CC[C@H](C)N1C=C(C2=C(C=C(C=C21)C3=CN=C(C=C3)N4CCNCC4)C(=O)NCC5=C(C=C(NC5=O)C)C)C [GSK126] + Cc1cc(Nc2cc(N3CCN(C)CC3)nc(Sc3ccc(NC(=O)C4CC4)cc3)n2)n[nH]1 [Tozasertib] (partner 0.1 µM)
An outline of the steps: as §1

Compound in the assay “GSK126 + Phenformin”: CC[C@H](C)N1C=C(C2=C(C=C(C=C21)C3=CN=C(C=C3)N4CCNCC4)C(=O)NCC5=C(C=C(NC5=O)C)C)C [GSK126] + N=C(N)NC(=N)NCCc1ccccc1 [Phenformin] (partner 250 µM)
Put shortly:
as §1

Compound in the assay “MLN4924 + Vorinostat”: NS(=O)(=O)OC[C@@H]1C[C@@H](n2ccc3c(N[C@H]4CCc5ccccc54)ncnc32)C[C@@H]1O [MLN4924] + O=C(CCCCCCC(=O)Nc1ccccc1)NO [Vorinostat] (partner 1 µM)
Put shortly: as §1

As for UMC-11, the relative viability came to 1.14 in the assay with GSK126 + Linsitinib (first compound 0.08 µM); 0.978 in the assay with GSK126 + Linsitinib (first compound 0.253 µM); 1.04 with GSK126 + Linsitinib (first compound 0.8 µM); 1.02 in the assay with GSK126 + Linsitinib (first compound 2.53 µM); 1.15 with GSK126 + Linsitinib (first compound 8 µM); 0.205 with GSK126 + Tozasertib (first compound 0.08 µM). Also, the relative viability in the assay with GSK126 + Tozasertib (first compound 0.253 µM) turned out to be 0.209; with GSK126 + Tozasertib (first compound 0.8 µM) it was 0.197; with GSK126 + Tozasertib (first compound 2.53 µM), 0.188; with GSK126 + Tozasertib (first compound 8 µM), 0.199; with GSK126 + Phenformin (first compound 0.08 µM) it was 0.35; with GSK126 + Phenformin (first compound 0.253 µM) it was 0.344. The relative viability came to 0.312 with GSK126 + Phenformin (first compound 0.8 µM); 0.32 with GSK126 + Phenformin (first compound 2.53 µM); 0.3 with GSK126 + Phenformin (first compound 8 µM); 0.173 with MLN4924 + Vorinostat (first compound 0.04 µM); 0.169 with MLN4924 + Vorinostat (first compound 0.1265 µM); 0.19 with MLN4924 + Vorinostat (first compound 0.4 µM). Besides, the relative viability amounted to 0.144 in the assay with MLN4924 + Vorinostat (first compound 1.265 µM) and 0.116 in the assay with MLN4924 + Vorinostat (first compound 4 µM).
